# Assay results reported in patent US4328242A, “α-(3,4,5-Trimethoxyhenzoyl)thiopropionyl-glycine” (Ausoria Farmaceutici S.r.l., priority 1980, dated 1982).
# Read-outs that look alike come from different tables or passages of the source.
# Legend:
# guinea pigs [1] = test: Protective activity in subacute bronchitis induced by inhalation of citric acid; type: in vivo; settings: 7.5% citric acid inhalation, oral route, equimolar doses
# rats [2] = test: Protective action on chronic bronchitis induced by inhalation of SO2; type: in vivo; settings: SO2 aerosol, equimolar dosages
# Method: Bronchopulmonary lesions were induced in the animals by aerosolization of SO2. The animals were then treated for two weeks with TBPG in the dosage of 100 and 400 mg/kg by the oral route, rectal route and by inhalation.
# rabbits = test: Secretory activity in rabbits (bronchial secretion); type: in vivo; settings: with respect to the control animals
# Excerpt: This activity has been determined using the method described by E. M. Boyd and C. F. Boyd, modified by P. C. Braga, et al described in Bronchial Hypersecretion, 1973. This activity has been determined every hour for a period of four hours by measuring the amount of bronchial secretion derived from the laryngo-tracheal organs and from the tracheo-bronchial organs of rabbits.
# rats [3] = test: Bronchosecretolithic activity in rats (sodium fluorescine method); type: in vivo; settings: 135 mg/kg intraperitoneally (equimolar)
# Method: The secretolithic activity of TBPG has been determined in comparison to α-mercaptopropionylglycine by administering 300 mg/kg of the substance intraperitonally and comparing with 135 mg/kg of α-mercaptopropionylglycine administered also intraperitoneally. The doses are equimolar. The method is based on the use of sodium fluorescine described by H. M. Mawatari (Experimental Studies on the Expectorant Action of Several Drugs, Kogoshima Daigakeu Igakeu Zasshi 27, 561, 1976).
# guinea pigs [4] = test: Antibronchospastic activity, histamine aerosol; type: in vivo; settings: equimolar doses
# Excerpt: Histamine administered in the form of an aerosol has caused in guinea pigs symptoms of broncho-spasm accompanied by convulsions, irreversible collapse and death.
# rats [5] = test: Protective activity of the liver in the intoxication caused by CCl4 (BSF elimination); type: in vivo; settings: rats intoxicated with CCl4; 90 and 180 mg/kg orally (equimolar)
# Method: The animals, that is rats, were intoxicated with CCl4 for a period of seven days. They were treated during the same days and for a subsequent period of seven days with TBPG in the dose of 200 and 400 mg/kg orally and with α-mercaptopropionylglycine in the dose of 90 and 180 mg/kg orally. On the fifteenth day, the rats have been treated with BSF in the amount of 10 mg/kg intravenously.
# rats [6] = test: Regenerative action in partial hepatectomy; type: in vivo; settings: partial hepatectomy, equimolar doses
# rats [7] = test: Action on the period of sleep induced by barbiturates; type: in vivo; settings: rats intoxicated with CCl4; equimolar doses
# Method: The activity of TBPG administered for two days in the dose of 200 and 400 mg/kg orally, has been determined on the basis of the reduction of the period of sleep induced by Nembutal on rats intoxicated with CCl4.
# [8] = type: in vivo; settings: rats, oral route, equimolar doses
# [9] = Stability at room temperature; type: physicochemical; settings: closed containers, 36 months
# Excerpt: Five different samples of TBPG and α-mercaptopropionyl glycine have been preserved at room temperature in closed containers for a period of 36 months. At the end of the storage period, the following properties have been determined: […]
# [10] = Isothermic (accelerated) stability according to the method of Garret, TLC; type: physicochemical
# Method: The tests of accelerated stability have been carried out with the substance in powder form, that is in glass vials, hermetically closed with a plastic screw cap and also with the substance dissolved in water, that is 500 mg in 10 cc in a transparent glass container of 20 cc capacity closed with a plastic screw cap.
# The production of impurities, if any, due to degradation of the substance, has been determined by means of TLC.
# Stability to light = type: physicochemical; settings: powder form, light of a 60 watt lamp, three months
# Stability to moisture = type: physicochemical; settings: open vials, 90% relative humidity, a month
# Method: Samples of TBPG and MPG have been maintained in open vials at room temperature under conditions of 90% relative humidity and at 50° C. always with 90% relative humidity. After a month of exposure, the following observations have been made.
# [11] = Stability in solution (acidic, alkaline, oxidizing medium); type: physicochemical; settings: 3% hydrogen peroxide, two months
# [12] = Stability in reducing medium (SO2); type: physicochemical; settings: 25 mg/ml, sodium bisulfite calculated as SO2, refluxed three hours
# Method: In the presence of SO2 --solutions containing 25 mg/ml of TBPG and MPG respectively in the presence of sodium bisulfite calculated as SO2 are warmed and refluxed for a period of three hours.
# [13] = solid state as a dry powder and in solution, even at low relative humidity and room temperature; cited from earlier work
# [14] = Powder, 60°, read-out: Chromatographic Impurities
# [15] = Powder, 70°, read-out: Chromatographic Impurities
# [16] = Powder, 80°, read-out: Chromatographic Impurities
# [17] = Solution (500 mg in 10 cc water), 60°, read-out: Chromatographic Impurities
# [18] = Solution (500 mg in 10 cc water), 70°, read-out: Chromatographic Impurities
# [19] = Solution (500 mg in 10 cc water), 80°, read-out: Chromatographic Impurities
smiles,measurement,setting,value
"CC(S)C(=O)NCC(=O)O (stereo not drawn) [α-mercaptopropionylglycine, 2-mercaptopropionylglycine]",efficacy compared with TBPG,guinea pigs [1],essentially overlapping
same,"protection of the bronchi and lungs, compared with TBPG",rats [2],Analogous results
same,laryngo-tracheal secretion,rabbits,P 0.05 with respect to the control animals
same,tracheo-bronchial secretion,rabbits,n.s.
same,bronchosecretolithic activity,rats [3],15.2%
same,antibronchospastic efficacy compared with TBPG,guinea pigs [4],efficacy comparable
same,"elimination of BSF, compared with TBPG",rats [5],comparable
same,"regeneration of the hepatic tissue, compared with TBPG",rats [6],comparable
same,"reduction of the period of sleep induced by Nembutal, compared with TBPG",rats [7],essentially comparable
same,concentration in the kidney,[8],high concentrations in the kidney
same,distribution in the organs,[8],sufficiently homogenous
same,"organoleptic properties (taste, odor)",[9],undergo substantial change
same,Chromatographic Impurities,"[10]; Powder, 60°, 320 hours",Traces
same,degraded at 960 h,[10]; [14],1%
same,degraded at 1280 h,[10]; [14],1%
same,degraded at 1600 h,[10]; [14],2%
same,Chromatographic Impurities,"[10]; Powder, 70°, 120 hours",Traces
same,degraded at 240 h,[10]; [15],1%
same,degraded at 480 h,[10]; [15],2%
same,degraded at 45 h,[10]; [16],1%
same,degraded at 90 h,[10]; [16],1%
same,degraded at 180 h,[10]; [16],2%
same,Chromatographic Impurities,"[10]; Solution (500 mg in 10 cc water), 60°, 0 hours",Absent
same,degraded at 320 h,"[10]; Solution (500 mg in 10 cc water), 60°, 320 hours, read-out: Chromatographic Impurities",0.5%
same,degraded at 640 h,"[10]; Solution (500 mg in 10 cc water), 60°, 640 hours, read-out: Chromatographic Impurities",0.6%
same,degraded at 960 h,[10]; [17],1%
same,degraded at 1280 h,[10]; [17],1.5%
same,degraded at 1600 h,[10]; [17],2.5%
same,degraded at 180 h,[10]; [18],1%
same,degraded at 240 h,[10]; [18],2%
same,degraded at 480 h,[10]; [18],2.5%
same,degraded at 45 h,[10]; [19],1%
same,degraded at 90 h,[10]; [19],2.5%
same,degraded at 120 h,"[10]; Solution (500 mg in 10 cc water), 80°, 120 hours, read-out: Chromatographic Impurities",1.5%
same,stability to light,Stability to light,"strong yellow color, due to degradation accompanied by an unpleasant odor and taste"
same,stability to moisture,Stability to moisture; 50° C.,"marked change in color, odor and taste accompanied by degradation products"
same,stability to moisture,Stability to moisture; room temperature (t.a.),significant change of organoleptic properties
same,stability in oxidizing medium,[11],the change is greater
same,stability in reducing medium,[12],undergoes substantial physico-chemical and organoleptic change
same,stability on storage,[13],low stability
